Measurements from patent US5770688A, “Method and composition for the treatment of mammalian HIV infection” (GSF-Forschungszentrum fur Umwelt und Gesundheit GmbH, priority 1989, dated 1998).

Tests used:
Rauscher leukemia virus = experiment: Example 2: Rauscher leukemia virus (RLV) model; type: in vivo, Balb/c mice
Text: As noted earlier, the Rauscher leukemia virus (RLV) model has been used successfully to test a number of compounds like nucleoside analogues, that is, AZT, and which has been utilized, heretofore, to inhibit HIV replication. This is discussed in further detail in the article authored by R. M. Ruprechet, et. al. and which is entitled Development of Antiviral Treatment Strategies in Murin Models, RES. Human Retroviruses, 8,997-1011 (1992). Those skilled in the art will recognized that RLV belongs to the Onkoviruses, which is a subfamily of the retrovirus family, and not to the Lentiviruses family, such as is the case with HIV. Therefore, the RLV model provides a suitable basis upon which one may test substances which interfere with the replication steps which are common, or similar, among related retroviruses. As noted earlier, inasmuch as the melittin (Seq. ID NO:1) appears to inhibit HIV transcription in vitro, then it appears that RLV is a suitable model to test the effect of melittin on in vivo replication inhibition.
The source of virus for the present example was secured from the leukemic spleens of RLV infected Balb/c mice. The virus titer of the pool of leukemic spleens was determined by titration. This titration method is discussed in the article authored by Schmidt et al., "Endogenous Murine Leukemia Viruses: frequency of radiation-activation and novel pathogenic effects of viral isolates." Leukemia Research 12, 393-403, (1988). The spleens were secured from 8 to 10 week old inbreed female Balb/c mice, and further from in mouse embryo fibroblasts. As noted earlier, virus replication in mice normally has been determined by the development of leukemia in the spleen. Additionally, the determination of in vitro virus replication has been measured heretofore by the number of virus protein producing cells which are stained with anti-RLV antibodies in an immuno-peroxidase staining test (IPF). Aliquots of the virus solutions were stored in liquid nitrogen and were again titrated in the fashion as noted above.
Stock virus solutions were diluted to provide solutions having a virus concentration of approximately 7×10^6 infectious units per milliliter. Following preparation of the solutions, 0.5 ml of these viral solutions were injected intraperitoneally (ip) into Balb/c mice that were 8 to 10 weeks old. […] As will be recognized by a study of FIG. 43 and FIG. 48, and following infection with the RLV, nearly 100% of the mice developed leukemia (splenomegaly) within approximately three weeks. […] The mean spleen weight development became less prominent. This is best seen by reference to FIG. 48 and in particular groups 8, 9 and 10.

[1] = blood serum levels of melittin after injection; type: in vivo, cats
Method: During the experiment it was determined that detectable blood serum levels of melittin (Seq. ID NO:1) of about 5 ng/ml could be detected following an injection of melittin equal to […] a few minutes after injection. […] In vitro data has shown that melittin, after this time interval, is found within the cells where it can be detected in tact for more than 48 hours. The LD50 (lethal dose where 50% of the animals perish) for melittin is not known for cats. In the present experiment, both cats M and G were treated twice weekly with subcutaneous injections over a period of eight weeks. During the first three weeks, each cat received increasing dosages of melittin (Seq. ID NO:1) beginning with a 50 mg/kg bodyweight injection, followed by injections of 100 mg/kg, and then escalating to 150, 225, 375 and 500 mg/kg at the sixth injection. Upon reaching this level, the melittin was administered in a constant dosage of 500 mg/kg twice weekly, for the remaining five weeks. […] The quantitative effect of melittin on FIV replication was determined quantitatively by utilizing FIV-PCR employing nested primers from the gag region. Quantification was based upon the determination of amplified product in identical samples which have been amplified after different cycle times. This is best seen by reference to FIG. 47A. Furthermore, each of the cats were clinically investigated in detail. […]

phospholipase A2 = details: anterior pituitary; cited from earlier work
[2] = all treated groups, regardless of schedule
[3] = group 1, after infection, intervals of 4 days
[4] = group 2, after infection, intervals of 2 days
[5] = group 3, after infection, daily

For “Gly-Ile-Gly-Ala-Val-Leu-Lys-Val-Leu-Thr-Thr-Gly-Leu-Pro-Ala-Leu-Ile-Ser-Trp-Ile-Lys-Arg-Lys-Arg-Gln-Gln-Amide [melittin]”, which “animals that developed leukemia” value (Rauscher leukemia virus; [2]) is on record?
The value was 70%.

And the mean spleen weight (Rauscher leukemia virus; [2])?
The mean spleen weight was 1.2 grams.

And the “spleen weights, treated vs untreated, in words” value (Rauscher leukemia virus; days 5 and 10, five administrations before and six after infection)?
Its value is “quite similar with only a slight difference appearing on day 10”.

What about the “leukemic animals, in words” value (Rauscher leukemia virus; days 5 and 15 (so in the source)) of the same substance?
The value was “no leukemic animals could be found on days 5 and 15”.

And the leukemic animals (Rauscher leukemia virus; [3])?
The leukemic animals was 4 out of 6.

What about the mean spleen weight (Rauscher leukemia virus; [3]) of the same substance?
The mean spleen weight was 1.1 grams.

And the leukemic animals (Rauscher leukemia virus; [4])?
The leukemic animals was 5 out of 6.

What about the mean spleen weight (Rauscher leukemia virus; [4]) of the same substance?
Its mean spleen weight is 1.3 grams.

And the mean spleen weight (Rauscher leukemia virus; group 2, pre-treated, 5 injections, FIG. 45)?
The mean spleen weight was 1.5 grams.

What about the leukemic animals (Rauscher leukemia virus; [5]) of the same substance?
Its leukemic animals is 5 out of 6.

What about the mean spleen weight (Rauscher leukemia virus; [5]) of the same substance?
The mean spleen weight was 1.1 grams.

And the mean spleen weight (Rauscher leukemia virus; group 3, pre-treated, 4 injections, FIG. 45)?
The mean spleen weight was 1.5 grams.

And the mean spleen weight (Rauscher leukemia virus; group 4, pre-treated, 3 injections, FIG. 45)?
Its mean spleen weight is 1.3 grams.

And the mean spleen weight (Rauscher leukemia virus; group 5, once before infection and five times later in four day intervals)?
The mean spleen weight was “approximately 1.3 grams”.

What about the “number of leukemic animals” value (Rauscher leukemia virus; group 6, day 15, ten analyzed) of the same substance?
Its value is “one”.

What about the mean spleen weight (Rauscher leukemia virus; group 6, single injection 12 hours before infection) of the same substance?
Its mean spleen weight is 1.1 grams.

And the mean spleen weight (Rauscher leukemia virus; group 7, single injection 24 hours before infection)?
Its mean spleen weight is 0.7 grams.

And the “animals that develop leukemia” value (Rauscher leukemia virus; group 8, day 21)?
The value was 7 out of 10.

And the mean spleen weight (Rauscher leukemia virus; group 8, day 21)?
Its mean spleen weight is 1.2 grams.

What about the mean spleen weight (Rauscher leukemia virus; group 8, single injection 6 hours before infection) of the same substance?
Its mean spleen weight is 0.9 grams.

And the “development of leukemia, in words” value (Rauscher leukemia virus; pre-treated animals, FIG. 45)?
The value was “nearly all of the pre-treated animals also developed leukemia”.

What about the “disappearance from the serum” value ([1]; in vivo) of the same substance?
The value was “disappears quickly from the serum”.

And the “detectable blood serum levels” value ([1]; injection equal to 200 mg/kg, a few minutes after injection)?
Its value is “about 5 ng/ml”.

What about the “effect on phospholipase A2” value (phospholipase A2) of the same substance?
The value was “stimulates endogenous phospholipase A2 in the anterior pituitary leading to growth hormone secretion”.
